Data: paper doi:10.1101/2024.07.10.602890, “H105A peptide eye drops promote photoreceptor survival in murine and human models of retinal degeneration” (bioRxiv, 2024)
Values belong to the substance of their own block, whether it stands above or below them. Ends that are not written are not given here.

Experiments:
[1] = system: rd10 and rd10/Serpinf1−/− mice; assay: Electroretinography (ERG) a-wave and b-wave after peptide eye drops; format: in vivo, mouse; details: rd10 mice; daily eye drops of AlexaFl488-labelled peptide P15-P20, ERG at P21; n = 3 per condition
Description: Fig. 5: Effect of daily eyedrops of PEDF peptides on ERG a-wave and b-wave retinal function (A and B) Representative ERG waveforms for rd10 (A) and rd10/Serpinf1^−/− (B) mice at P21 in response to a light flash (1 cd.s/m^2). Amplitude (y-axis) is plotted against time in milliseconds (ms, x-axis). Treatments are indicated to the right of each plot and are color coded, with control wild type C57Bl/6J mice without peptide treatment shown in blue. A-wave and b-wave are indicated by arrows. (C and D) Photoreceptor a-wave amplitudes. Averages of photoreceptor a-wave amplitudes for rd10 (C) and rd10/Serpinf1^−/− (D) mice as a function of light intensity (cd/s.m^2, x-axis). Responses of animals treated with 17-mer are shown in green, H105A in black, and vehicle (HBSS) in red. Wildtype responses are shown in blue. (E and F) Bipolar cell b-wave amplitudes. Averages of bipolar cell b-wave amplitudes for rd10 (E) and rd10/Serpinf1^−/− (F) mice as a function of light intensity (cd/s.m^2, x-axis), with treatments indicated as in panels (C) and (D). The number of mice evaluated for the data shown in Panels C-F were n = 8 for each rd10, rd10/Serpinf1^−/− and wild type. Each data point represents the average ± SD of each genotype, analyzed by unpaired t-test. Statistical significance between H105A and vehicle is indicated by ##p < 0.01, ###p < 0.001, ####p < 0.0001, and between H105A and 17-mer by **p < 0.01, ***p < 0.001, ****p < 0.0001.
Electroretinogram (ERG) for rd10 and rd10/Serpinf1^−/− mice were recorded in both eyes of each animal using an Espion E2 system with ColorDome (Diagnosys LLC) with a heated surface and mice were dark-adapted overnight as previously described ([29]). Mice were placed on the heated surface and electrodes were placed in the mouth and a subdermal platinum needle electrode was placed in the back of the mouse to serve as ground. Responses were elicited with increasing light impulses with intensity from 0.0001 to 10 cd-seconds per meter squared (cd.s/m^2). Amplitudes for a-wave were measured from stimulus to the trough of the a-wave and b-wave amplitudes were measured from a-wave to b-wave trough or peak. The values from the a and b waves for both eyes were exported to Microsoft Excel to obtained amplitude values for each mouse.
(§1) Figure S2. Effects of extending the timeline or administering eye drops of 17-mer[H105A] peptide every other day in rd10 mic e.
Eye drops of H105A peptide solution were administered to r d1 0 mice either daily (Fig. S2A) or every other day (Fi g. S 2D). A total of 5 µl of a solution containing H105A peptide at 1 mg/ml in HBSS were applied as eye drops. The vehicle HBSS was added as eye drops in the contralateral eyes. When eye […]
intensity light at P25 (Fig. S2C). When eye drops of H105A were added every other day, a rescue in the ONL thickness in r d10 mice compared to vehicle was also observed (Fi g. S 2E), with an improvement in a- […]
efficacy of peptide H105A eye drops either daily or every other day in an extended timeline to stabilize photoreceptor morphology and light response function loss in r d10 mice, however, these were less efficacious than daily H105A peptide eye drops. […]
(C) ERG of r d1 0 mice at P25 and treated as in Fi g. […] For ERG data shown, the number of mice evaluated were n =5 for rd10 and each data point corresponds to the average ± SD of each genotype by unpaired t-test. *p < 0.05, **p < 0.01, * ** p < 0 .001 , ****p < 0.0001. […]

[2] = system: rd10 and rd10/Serpinf1−/− mice; assay: Retinal histology (H&E), OS length and ONL thickness spider plots after peptide eye drops; format: in vivo, mouse; details: daily eye drops 1 mg/ml; rd10 and rd10/Serpinf1−/− mice; P21
Procedure: Fig. 4: Effect of eyedrops of 17-mer and H105A peptides on photoreceptor morphology of rd10 and rd10/Serpinf1−/− mice (A and B) Histological Evaluation. Representative microphotographs of retina sections from rd10 (A) and rd10/Serpinf1−/− (B) mice treated with 17-mer, H105A, or R99A peptides at 1 mg/ml, or with vehicle (HBSS), compared to wild type C57Bl/6J mice. Sections were stained with hematoxylin and eosin. Spider Plot illustrate the thickness of the outer nuclear layer (ONL) in rd10 (C) and rd10/Serpinf1−/− (D) mice. Five retinas per group were analyzed and each data point represents the average ± SEM per location relative to the optic nerve (ON), analyzed using One-way ANOVA. Statistics for comparisons between H105A and vehicle is indicated by #p < 0.05, #p < 0.05, ##p < 0.01, ###p < 0.001). Statistics for comparisons between H105A and 17-mer is indicated by *p < 0.05. Scale bar = 50 μm.
Both eyes were oriented before enucleation to allow sectioning along the dorsal/ventral axis. Enucleated eyes from rd10 and rd10 × Serpinf1^−/− mice were incised in the cornea and fixed in 2.5% glutaraldehyde for 20 min and then in 10% neutral buffered formalin at 4°C for at least 48 h, followed by paraffin embedding, sectioning, and staining with either H&E or immunofluorescence procedures, as previously described ([28]). For fluorescence microscopy, antibodies, and 0.1 μg/ml DAPI were used to immunostain and nuclei counterstain the sections, respectively. Antibodies used in the study are in Table S3. Images were acquired using a ZEIS 700 confocal microscope. Fluorescence intensity was quantified using ImageJ as previously described ([14], [26]).
To generate spider plots, the ONL thickness was measured from images acquired with light microscopy of the retina sections stained with H&E or images of retina sections stained with DAPI with a dorsal-ventral orientation. The ONL thickness in the entire retina sections was measured at 5 different positions from both sides of the optic nerve (ON) using ImageJ, as described before ([28]). Alternatively, for DAPI stained images, a customed macro implemented in ImageJ was used to select only the ONL.
as §1
Eye drops of H105A peptide solution were administered to r d1 0 mice either daily (Fig. S2A) or every other day (Fi g. S 2D). A total of 5 µl of a solution containing H105A peptide at 1 mg/ml in HBSS were applied as eye drops. The vehicle HBSS was added as eye drops in the contralateral eyes. […]
ONL thickness in r d10 mice compared to vehicle was also observed (Fi g. S 2E), with an improvement in a- […]
efficacy of peptide H105A eye drops either daily or every other day in an extended timeline to stabilize photoreceptor morphology and light response function loss in r d10 mice, however, these were less efficacious than daily H105A peptide eye drops.
(A) Scheme showing a timeline of peptide administration via daily eye drops of H105A peptide to r d10 mice between P15 and P2 4. […]
(B) Representative microphotographs of retinal cross sections of r d1 0 treated as in Fig. S2A and stained with hematoxylin and eosin are shown. […]
(D) Scheme showing a timeline of peptide administration via eye drops of H105A peptide to rd10 mice starting at P15 every other day until P23. Assays were at P25.
(E) Representative microphotographs of retinal cross sections of r d1 0 treated as in Fig. S2D and stained […]
average ± SD per location relative to the ON per genotype by unpaired t-test. *p < 0.05, […]
(F) ERG of r d1 0 mice at P25 and treated as in Fig. S2D were performed in response to a STR. […]

[3] = system: rd10 and rd10/Serpinf1−/− mice; assay: In vivo photoreceptor cell death (PS externalization) by PSVue-550 fluorescence fundoscopy; set-up: species or system mouse
Procedure: Fig. 2: Effect of PEDF peptide eye drops on protection against photoreceptor cell death in rd10 and rd10/Serpinf1^−/− mice (A) Illustration of the experimental timeline of peptide application. Eye drops containing 5 μl of 17-mer, H105A, or R99A peptides in HBSS were administered daily to eyes of rd10 and rd10/Serpinf1^−/− mice from P15 to P20. Vehicle (HBSS) was applied in contralateral eyes. At P20, PSVue® was applied via eye drops, and fluorescence fundoscopy was conducted at P21 to assess photoreceptor cell death. RE and LE refer to the right and left eyes, respectively. (B) Fluorescence fundoscopy micrographs. Representative fluorescence fundoscopy images of retinas from mice treated as in Panel A with eyedrops of 1 mg/ml of each peptide. Quantification of fluorescence intensity was performed using ImageJ, with average intensity values corrected for background fluorescence from eyes that had not received PSVue or peptides. […] Statistical significance was determined by unpaired t-test (****p < 0.0001). […] Representative fluorescence fundoscopy micrographs showing retinas treated with varying concentrations of 17-mer and H105A peptides (0.0 mg/ml to 1.0 mg/ml) in rd10 and rd10/SerpinfT^−/− mice. Fluorescence intensity was quantified and analyzed using Sigmoidal interpolation in GraphPad. […]

- neuroprotective activity of labelled peptides as assessed by ERG [1]: exhibited neuroprotective activity
Substance: AlexaFl-QRTESIIARALYYDLIS-COOH [AlexaFl-488-H105A, H105A peptide conjugated to Alexa Fluor 488 dye]

Substance: QATESIIHRALYYDLIS [R99A]
- outer nuclear layer (ONL) thickness vs vehicle-treated or untreated eyes [2]: had no effect
- photoreceptor outer segment (OS) length vs vehicle-treated or untreated eyes [2]: had no effect
- PS externalization (PSVue-550 fundi fluorescence) vs vehicle (HBSS) eye drops ([3]; daily eye drops 5 μl of 1 mg/ml, P15 to P20, fundoscopy at P21, 5 eyes per condition): no significant efficacy

Substance: SLGAEQRTESIIHRALYYDLISSPDIHGT [29-mer]
- photoreceptor cell death (PSVue 550 fluorescence fundoscopy) relative to vehicle ([3]; daily eye drops 5 μl of 1 mg/ml in HBSS from P15, P21, n = 3 retinas per genotype): no rescue in photoreceptor cell death

- neuroprotective activity of labelled peptides as assessed by ERG [1]: exhibited neuroprotective activity
Substance: AlexaFl-QRTESIIHRALYYDLIS-COOH [AlexaFl-488-17-mer, 17-mer conjugated to Alexa Fluor 488 dye]
